# Measurements as given in patent US7439380B2, “Diarylbutadiene-substituted diorganopolysiloxanes and photoprotective compositions comprised thereof” (L'Oreal, priority 2003, dated 2008).
# Test: UV absorption spectrum in ethanol
# Format: physicochemical
# Settings: for UV E1% / UV εmax: at λmax
SMILES,UV λmax [nm],UV E1%,UV εmax
"CCOC(=O)/C(=C\C=C(c1ccccc1)c1ccccc1)C(=O)NCCC[Si](C)(O[Si](C)(C)C)O[Si](C)(C)C [Example 7, ethyl 4,4-diphenyl-1,3-diene-N-[3-[1,3,3,3-tetramethyl-1-[(trimethylsilyl)oxy]disiloxanyl]propyl]-2-(4,4-diphenylprop-2-ethylene)malonamide]",335,542,31 650
CC(COC(=O)C(=CC=C(c1ccccc1)c1ccccc1)C(=O)OCC(C)C[Si](C)(O[Si](C)(C)C)O[Si](C)(C)C)C[Si](C)(O[Si](C)(C)C)O[Si](C)(C)C (stereo not drawn) [Example 6],330,346,28 650
"CCOC(=O)/C(=C/C=C(c1ccccc1)c1ccccc1)C(=O)OCC(C)C[Si](C)(O[Si](C)(C)C)O[Si](C)(C)C (stereo not drawn) [Example 1, monoethyl mono-3-[1,3,3,3-tetramethyl-1-[(trimethylsilyl)oxy]disiloxanyl]-2-methylpropyl 2-(3,3-diphenylprop-2-enylene)malonate]",333,660,39 530
"C[Si](C)(C)O[Si](C)(CCCOC(=O)/C(C#N)=C\C=C(c1ccccc1)c1ccccc1)O[Si](C)(C)C [Example 3, 3-[1,3,3,3-tetramethyl-1-[(trimethylsilyl)oxy]disiloxanyl]propyl 2-cyano-5,5-diphenylpenta-2,4-dienoate]",358,574,30 874
"C[Si](C)(C)O[Si](C)(CCCNC(=O)/C(C#N)=C/C=C(c1ccccc1)c1ccccc1)O[Si](C)(C)C [Example 5, N-[3-[1,3,3,3-tetramethyl-1-[(trimethylsilyl)oxy]disiloxanyl]propyl]-2-cyano-5,6-diphenylpenta-2,4-dienamide]",351,515,27 650
